According to US20020045638A1, “Method of treating estrogen receptor positive carcinoma” (priority 2000, published 2002):

Key:
MCF-7 tumors = assay: Growth of MCF-7 breast carcinoma implanted in nude mice; type: in vivo; conditions: for Tumor size (mean ± standard error): 20 mg/kg ERA-923 PO qd days 1-35
Experimental: In the third standard pharmacological test procedure, mice implanted with MCF-7 tumors were treated with a combination of ERA-923 and CCI-779. […] ERA-923 was dissolved in 1% Tween 80 and 0.9% NaCl Injection USP. Drug was aliquoted into daily doses using 10.0 ml glass bottles and frozen at −20° C. until needed. CCI-779 was made fresh using a 5% ETOH, 4.9% Phosal and 0.1% Tween 80 in Sterile Water. 0.2 ml of each drug was given orally starting the day after tumor implantation. ERA 923 was given daily for the duration of the experiment and CCI-779 was given every other day for the first 10 days. The control vehicles were given on the same regime as the drugs. MCF7 cells were cultured in IMEM containing 5% Fetal Bovine Serum with passages varying from 2-20. After trypsinization tumors were resuspended in IMEM with 2% Serum at a 1:1 ratio with Matrigel. 10 million cells were injected subcutaneously into the mammary tissue of each mouse using a 1.0 ml tuberculin syringe with a 23 3/4 gauge needle. Five to six week old female ovariectomized athymic nu/nu mice (Charles River Labs: Wilmington, Mass.) weighing from 20.0-23.0 g were used. The animals were housed 5 to a cage in a Microisolator Open Rack System (Lab Products: Maywood, N.J.). Each mouse received a 17β-Estradiol pellet (0.72 mg/pellet-60 day release). The pellets were injected with a 10 gauge trochar into the lateral side of the neck between the ear and the shoulder 1-2 weeks prior to tumor injection. Control groups were 15 mice/vehicle whereas the drug groups were 10 mice/drug. Tumors were measured weekly by means of solar calipers (Cole-Parmer Instuments: Vernon Hills, Ill.) and tumor weights were estimated from tumor diameters by the following formula:
Tumor weight (mg)=tumor length (mm)×tumor width (mm)^2/2.
Mice were euthanized 36 days after tumor injection by CO2 inhalation. […] Nude mice bearing MCF-7 tumors were given ERA-923, CCI-779 or the combination of both drugs.

[1] = test system: BG-1 human ovarian cancer cells; assay: Inhibition of growth of BG-1 ovarian cancer cells (MTT), with MacSynergy II synergy analysis; type: cell-based; conditions: for Percent Inhibition: Table G, CCI-779 0 nM
Experimental: In these test procedures, rapamycin 42-ester with 3-hydroxy-2-(hydroxymethyl)-2-methylpropionic acid was used as a representative rapamycin, and 2-(4-hydroxy-phenyl)-3-methyl-1-[4-(2-piperdin-1-yl-ethoxy)-benzyl-1 H-indol-5-ol, raloxifene, and 4-hydroxytamoxifen were used as representative antiestrogens.
One day before the experiment, cells were plated in 96-well plates at a cell density of 2,500 cells/well in IMEM medium supplemented with 10% fetal bovine serum. The next day, cells were treated with various concentrations of antiestrogen and rapamycin 42-ester with 3-hydroxy-2-(hydroxymethyl)-2-methylpropionic acid (referred to as CCI-779 in the tables below). Five or six-days later, cell growth was monitored.

[2] = test system: MCF-7 human breast cancer cells; assay: Inhibition of growth of MCF-7 breast cancer cells (MTT), with MacSynergy II synergy analysis;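 also: cells treated five or six days with single agents or combinations, growth read by MTT, synergy surface equals observed % inhibition minus Bliss additive prediction, values under 0% signal antagonism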
[3] = BG-1, antiestrogen in combination with CCI-779, MacSynergy II, Bliss independence model
[4] = MCF-7, antiestrogen in combination with CCI-779, MacSynergy II, Bliss independence model

Cc1c(-c2ccc(O)cc2)n(Cc2ccc(OCCN3CCCCC3)cc2)c2ccc(O)cc12 [ERA-923]
Tumor size (mean ± standard error) (MCF-7 tumors; day 14 after tumor implantation): 480 ± 91 mg | Tumor size (mean ± standard error) (MCF-7 tumors; day 21 after tumor implantation): 679 ± 127 mg | Tumor size (mean ± standard error) (MCF-7 tumors; day 28 after tumor implantation): 842 ± 163 mg | Tumor size (mean ± standard error) (MCF-7 tumors; day 36 after tumor implantation): 993 ± 197 mg | inhibition of tumor growth (MCF-7 tumors; nude mice bearing MCF-7 tumors, growth inhibition=experimental value−200 (baseline)/control value −200): approximately 35% | Antagonsim [1, 3]: 0.0 μM^2% | Synergy [1, 3]: 25.9 μM^2% | Percent Inhibition ([1]; ERA-923 0.25 nM): 14.72% | Percent Inhibition ([1]; ERA-923 0.5 nM): 24.14% | Percent Inhibition ([1]; ERA-923 1 nM): 48.93% | Percent Inhibition ([1]; ERA-923 2 nM): 57.19% | Percent Inhibition ([1]; ERA-923 3 nM): 72.54% | Percent Inhibition ([1]; ERA-923 4 nM): 80.34% | Percent Inhibition ([1]; ERA-923 5 nM): 75.94% | increase of growth-inhibitory effect as estimated by the IC50 ([2]; ERA-923 in the presence of non-inhibitory concentrations of CCI-779): approximately 10 fold | Antagonsim [2, 4]: 0.0 μM^2% | Synergy [2, 4]: 138.0 μM^2% | Percent Inhibition ([2]; Table A, CCI-779 0 nM, ERA-923 0.25 nM): 9% | Percent Inhibition ([2]; Table A, CCI-779 0 nM, ERA-923 0.5 nM): 7.59% | Percent Inhibition ([2]; Table A, CCI-779 0 nM, ERA-923 1 nM): 37.56% | Percent Inhibition ([2]; Table A, CCI-779 0 nM, ERA-923 2 nM): 54.65% | Percent Inhibition ([2]; Table A, CCI-779 0 nM, ERA-923 3 nM): 59.39% | Percent Inhibition ([2]; Table A, CCI-779 0 nM, ERA-923 4 nM): 60.04% | Percent Inhibition ([2]; Table A, CCI-779 0 nM, ERA-923 5 nM): 61.12% | Percent Inhibition ([2]; Table D, ERA-923 0 nM + ERA-923 0.25 nM): −0.78% | Percent Inhibition ([2]; Table D, ERA-923 0 nM + ERA-923 0.5 nM): 26.09% | Percent Inhibition ([2]; Table D, ERA-923 0 nM + ERA-923 1 nM): 54.91% | Percent Inhibition ([2]; Table D, ERA-923 0 nM + ERA-923 2 nM): 71.82% | Percent Inhibition ([2]; Table D, ERA-923 0 nM + ERA-923 3 nM): 87.65% | Percent Inhibition ([2]; Table D, ERA-923 0 nM + ERA-923 4 nM): 78.72% | Percent Inhibition ([2]; Table D, ERA-923 0 nM + ERA-923 5 nM): 79.25% | Percent Inhibition ([2]; Table D, ERA-923 0.25 nM + ERA-923 0 nM): 6.69% | Percent Inhibition ([2]; Table D, ERA-923 0.25 nM + ERA-923 0.25 nM): 35.93% | Percent Inhibition ([2]; Table D, ERA-923 0.25 nM + ERA-923 0.5 nM): 56.79% | Percent Inhibition ([2]; Table D, ERA-923 0.25 nM + ERA-923 1 nM): 64.27% | Percent Inhibition ([2]; Table D, ERA-923 0.25 nM + ERA-923 2 nM): 76.33% | Percent Inhibition ([2]; Table D, ERA-923 0.25 nM + ERA-923 3 nM): 78.99% | Percent Inhibition ([2]; Table D, ERA-923 0.25 nM + ERA-923 4 nM): 78.39% | Percent Inhibition ([2]; Table D, ERA-923 0.25 nM + ERA-923 5 nM): 79.68% | Percent Inhibition ([2]; Table D, ERA-923 0.5 nM + ERA-923 0 nM): 8.17% | Percent Inhibition ([2]; Table D, ERA-923 0.5 nM + ERA-923 0.25 nM): 53.61% | Percent Inhibition ([2]; Table D, ERA-923 0.5 nM + ERA-923 0.5 nM): 63.08% | Percent Inhibition ([2]; Table D, ERA-923 0.5 nM + ERA-923 1 nM): 68.58% | Percent Inhibition ([2]; Table D, ERA-923 0.5 nM + ERA-923 2 nM): 73.71% | Percent Inhibition ([2]; Table D, ERA-923 0.5 nM + ERA-923 3 nM): 81.21% | Percent Inhibition ([2]; Table D, ERA-923 0.5 nM + ERA-923 4 nM): 79.57% | Percent Inhibition ([2]; Table D, ERA-923 0.5 nM + ERA-923 5 nM): 81.43% | Percent Inhibition ([2]; Table D, ERA-923 1 nM + ERA-923 0 nM): 42.1% | Percent Inhibition ([2]; Table D, ERA-923 1 nM + ERA-923 0.25 nM): 66.83% | Percent Inhibition ([2]; Table D, ERA-923 1 nM + ERA-923 0.5 nM): 75.09% | Percent Inhibition ([2]; Table D, ERA-923 1 nM + ERA-923 1 nM): 74.24% | Percent Inhibition ([2]; Table D, ERA-923 1 nM + ERA-923 2 nM): 74.07% | Percent Inhibition ([2]; Table D, ERA-923 1 nM + ERA-923 3 nM): 76.56% | Percent Inhibition ([2]; Table D, ERA-923 1 nM + ERA-923 4 nM): 80.45% | Percent Inhibition ([2]; Table D, ERA-923 1 nM + ERA-923 5 nM): 82.97% | Percent Inhibition ([2]; Table D, ERA-923 2 nM + ERA-923 0 nM): 67.81% | Percent Inhibition ([2]; Table D, ERA-923 2 nM + ERA-923 0.25 nM): 74.73% | Percent Inhibition ([2]; Table D, ERA-923 2 nM + ERA-923 0.5 nM): 75.08% | Percent Inhibition ([2]; Table D, ERA-923 2 nM + ERA-923 1 nM): 75.36% | Percent Inhibition ([2]; Table D, ERA-923 2 nM + ERA-923 2 nM): 75.03% | Percent Inhibition ([2]; Table D, ERA-923 2 nM + ERA-923 3 nM): 78.5% | Percent Inhibition ([2]; Table D, ERA-923 2 nM + ERA-923 4 nM): 81.23% | Percent Inhibition ([2]; Table D, ERA-923 2 nM + ERA-923 5 nM): 82.02% | Percent Inhibition ([2]; Table D, ERA-923 3 nM + ERA-923 0 nM): 52.23% | Percent Inhibition ([2]; Table D, ERA-923 3 nM + ERA-923 0.25 nM): 75.24% | Percent Inhibition ([2]; Table D, ERA-923 3 nM + ERA-923 0.5 nM): 76.06% | Percent Inhibition ([2]; Table D, ERA-923 3 nM + ERA-923 1 nM): 77.68% | Percent Inhibition ([2]; Table D, ERA-923 3 nM + ERA-923 2 nM): 76.67% | Percent Inhibition ([2]; Table D, ERA-923 3 nM + ERA-923 3 nM): 81.51% | Percent Inhibition ([2]; Table D, ERA-923 3 nM + ERA-923 4 nM): 83.2% | Percent Inhibition ([2]; Table D, ERA-923 3 nM + ERA-923 5 nM): 82.87% | Percent Inhibition ([2]; Table D, ERA-923 4 nM + ERA-923 0 nM): 74.49% | Percent Inhibition ([2]; Table D, ERA-923 4 nM + ERA-923 0.25 nM): 79.39% | Percent Inhibition ([2]; Table D, ERA-923 4 nM + ERA-923 0.5 nM): 80.92% | Percent Inhibition ([2]; Table D, ERA-923 4 nM + ERA-923 1 nM): 77.2% | Percent Inhibition ([2]; Table D, ERA-923 4 nM + ERA-923 2 nM): 78.2% | Percent Inhibition ([2]; Table D, ERA-923 4 nM + ERA-923 3 nM): 79.28% | Percent Inhibition ([2]; Table D, ERA-923 4 nM + ERA-923 4 nM): 83.28% | Percent Inhibition ([2]; Table D, ERA-923 4 nM + ERA-923 5 nM): 85.92%
